Assay results taken from patent US20220000840A1, “PHARMACEUTICAL COMPOSITION AND PREPARATION METHOD THEREFOR” (priority 2015, published 2022).

How the values were obtained:
[1] = Stability of NL-101 intermediate/diluted solution (before lyophilization) at room temperature (25±2°C), HPLC; format: physicochemical; settings: for Purity: intermediate solution per Example 2 of CN103826630A, room temperature (25 ± 2° C.)
Protocol: (§1) Northlake Biosciences LLC submitted an application WO2013010286A2 on Sep. 14, 2012, and its Chinese family patent is CN103826630A. Chinese family patent application CN103826630A uses acetic acid to dissolve NL-101 and use cyclodextrin inclusion technology to prepare lyophilized powder for injection to improve the safety of NL-101. However, the prepared NL-101 lyophilized powder for injection, such as Example 2, although claimed to be chemically stable at −20° C., 4° C. and room temperature for at least 2 weeks, in fact, the inventors of the present application have verified that the results are still far from satisfying the clinical application requirements of drugs. Although it can be stable for 2-3 weeks at −20° C. and 4° C., it is only stable for several days at room temperature. […] Especially when placed only 5 days in the condition of high temperature accelerated test at 40° C., more than 15% of NL-101 was degraded. The specific stability test results are shown in Table 1, Table 2, and Table 3 below.
The diluted solutions prepared according to the formulations 1-15, 1-1, 2-1, 3-1 and according to Example 2 of CN103826630A were left to stand for 2 hours at room temperature (25±2° C.) and the stability of each diluted solution was tested by high performance liquid chromatography.
The diluted solutions prepared according to the formulations 16-29 and according to Example 2 of CN103826630A were left to stand for 2 hours at room temperature (25±2° C.) and the stability of each diluted solution was tested by high performance liquid chromatography.
Three batches of diluted solutions were taken and placed at room temperature (25±2° C.) for different periods of time. The stability of each diluted solution was tested by high performance liquid chromatography.

[2] = Storage stability of NL-101 lyophilized preparation (room temperature, 4°C, -20°C); format: physicochemical; settings: for time stable: verified by the inventors; for Purity: lyophilized preparation per Example 2 of CN103826630A, room temperature (25 ± 2° C.)
Protocol: as §1
According to the accelerated test results at 40° C., it is presumed that under the condition of storage, transportation and sales at room temperature (25±2° C.), it can remain stable for at least 2 years and fully meet the needs of clinical use.

[3] = Accelerated test of NL-101 lyophilized preparation at 40°C, HPLC / HPLC-MS; format: physicochemical; settings: for Purity: lyophilized preparation per Example 2 of CN103826630A, accelerated test at 40° C.
Protocol: as §1
The NL-101 lyophilized preparation for injection prepared according to the formulation 4 was taken and subjected to an accelerated test at 40° C., and the stability was tested by high performance liquid chromatography.
The NL-101 lyophilized preparation for injection prepared according to the formulations 16 and 22 were taken and subjected to an accelerated test at 40° C., and the accelerated test samples were test by high performance liquid chromatography in connection with mass spectrometry.
The above three batches of lyophilized powder for injection were taken and subjected to accelerated experiments at 40° C. The contents and total impurities were measured at 0, 1, 3, and 6 months, respectively.

[4] = Stability of NL-101 reconstituted solution (5 mg/mL) at room temperature (25±2°C); format: physicochemical; settings: CN103826630A Example 2 lyophilized preparation
Excerpt: In the process of investigating the NL-101 lyophilized preparation, the inventors unexpectedly discovered that reconstitution of the NL-101 lyophilized preparation with different solvents has a great influence on the stability of NL-101. For example, the lyophilized preparation prepared in Example 2 of CN103826630A was reconstituted with water for injection and physiological saline, respectively, and the purity of NL-101 in the reconstituted solution was examined at different time points.
Since the NL-101 lyophilized powder for injection prepared in Example 2 of CN103826630A contains sodium ions, it is speculated that the stability of NL-101 is increased by chlorine ions in sodium chloride. In order to confirm this, we conducted a stability investigation by reconstituting the lyophilized preparation prepared in Example 2 of CN103826630A in a potassium chloride solution having the same molar concentration as physiological saline.

[5] = Solubility and chemical stability of NL-101 drug substance; format: physicochemical
[6] = lyophilized powder for injection of CN103826630A Example 2, at −20° C., 4° C. and room temperature, as claimed in CN103826630A; cited from earlier work
[7] = intravenous injection of prior-art injection (NL-101 dissolved with acetic acid, diluted with water for injection), animal; cited from earlier work

SMILES: Cn1c(CCCCCCC(=O)NO)nc2cc(N(CCCl)CCCl)ccc21 [NL-101, 7-[5-[bis(chloroethyl)-amino]-1-methylbenzimidazol-2-yl]-N-hydroxyl-heptamide]
- NL-101 degraded ([1]; intermediate solution before lyophilization per Example 2 of CN103826630A, in the dark at room temperature for 4 hours): more than 15%
- Purity ([1]; 0 h): 94.05%
- Purity ([1]; 2 h): 88.06%
- Purity ([1]; 4 h): 78.22%
- time stable ([2]; lyophilized powder for injection of CN103826630A Example 2, at room temperature): several days
- time stable ([2]; lyophilized powder for injection of CN103826630A Example 2, at −20° C. and 4° C.): 2-3 weeks
- degradation of NL-101 ([2]; lyophilized powder for injection of CN103826630A Example 2, room temperature for 1 month): degraded severely
- Purity ([2]; day 0): 90.23%
- Purity ([2]; day 5): 85.16%
- Purity ([2]; day 15): 77.31%
- Purity ([2]; day 30): 70.55%
- NL-101 degraded ([3]; lyophilized powder for injection of CN103826630A Example 2, 5 days in accelerated test at 40° C.): more than 15%
- Purity ([3]; day 0): 90.23%
- Purity ([3]; day 5): 72.31%
- purity of NL-101 reconstituted with potassium chloride injection ([4]; 0 h): 91.28%
- purity of NL-101 reconstituted with sodium chloride injection ([4]; 0 h): 91.88%
- purity of NL-101 reconstituted with water for injection ([4]; 0 h): 90.23%
- purity of NL-101 reconstituted with potassium chloride injection ([4]; 2 h): 86.25%
- purity of NL-101 reconstituted with sodium chloride injection ([4]; 2 h): 87.05%
- purity of NL-101 reconstituted with water for injection ([4]; 2 h): 80.06%
- purity of NL-101 reconstituted with potassium chloride injection ([4]; 4 h): 81.93%
- purity of NL-101 reconstituted with sodium chloride injection ([4]; 4 h): 80.23%
- purity of NL-101 reconstituted with water for injection ([4]; 4 h): 71.08%
- purity of NL-101 reconstituted with potassium chloride injection ([4]; 6 h): 83.56%
- purity of NL-101 reconstituted with sodium chloride injection ([4]; 6 h): 78.33%
- purity of NL-101 reconstituted with water for injection ([4]; 6 h): 59.36%
- solubility ([5]; in acetic acid): easily soluble
- stability ([5]; in aqueous solution): unstable
- stability ([5]; in case of strong acid, strong alkali, strong oxidant and light): easily degraded
- solubility ([5]; in ethanol): very slightly soluble
- solubility ([5]; in methanol): slightly soluble
- stability ([5]; in methanol and acetic acid solution): relatively stable
- solubility ([5]; in water): insoluble
- time claimed to be chemically stable [6]: at least 2 weeks
- mortality rate [7]: high
- toxicity [7]: highly toxic
- vascular irritation [7]: large
